The results in this text go back to PubChem BioAssay AID270 (DTP/NCI, 2004).

Where “and” joins values, the source holds several entries; their conditions need not be identical. Identical values can stand only once. Inconclusive results are not listed.

The subject of this assay is BDF1 mice, s.c. Lewis lung carcinoma, T/C %. Nature of the assay: NCI In Vivo Anticancer Drug Screen. Data for tumor model Lewis Lung Carcinoma (subcutaneous) in B6D2F1 (BDF1) mice. Summed up:
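Tumor-bearing mice were treated with test compound, and either survival or tumor size was recorded. Values are the treated-group measurement divided by that of the vehicle-treated control group.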

Where [1] appears, read: endpoint: median survival time, dose: 0.31 mg/kg/injection, schedule: Q01DX009 (ip), vehicle: Klucel (hydroxypropylcellulose) (HPC), higher = longer survival.
[2] abbreviates: endpoint: median survival time, dose: 0.62 mg/kg/injection, schedule: Q01DX009 (ip), vehicle: Klucel (hydroxypropylcellulose) (HPC), higher = longer survival.
[3] abbreviates: endpoint: median survival time, dose: 1.25 mg/kg/injection, schedule: Q01DX009 (ip), vehicle: Klucel (hydroxypropylcellulose) (HPC), higher = longer survival.
Setting [4] is: endpoint: median survival time, dose: 2.5 mg/kg/injection, schedule: Q01DX009 (ip), vehicle: Klucel (hydroxypropylcellulose) (HPC), higher = longer survival.
Setting [5] is: endpoint: mean tumor weight, dose: 100.0 mg/kg/injection, schedule: Q01DX011 (ip), vehicle: other, higher = larger tumour.

With `S=c1nc[nH]c2nc[nH]c12`, the T/C is, setting by setting: (endpoint: mean tumor weight, dose: 5.0 mg/kg/injection, schedule: Q01DX011 (ip), vehicle: alkali diluted with saline, higher = larger tumour) 58 % of control; (endpoint: mean tumor weight, dose: 10.0 mg/kg/injection, schedule: Q01DX011 (ip), vehicle: alkali diluted with saline, higher = larger tumour) 60 % of control; (endpoint: mean tumor weight, dose: 12.5 mg/kg/injection, schedule: Q01DX011 (ip), vehicle: alkali diluted with saline, higher = larger tumour) 62 % of control; (endpoint: mean tumor weight, dose: 20.0 mg/kg/injection, schedule: Q01DX011 (ip), vehicle: alkali diluted with saline, higher = larger tumour) 51 % of control; (endpoint: mean tumor weight, dose: 25.0 mg/kg/injection, schedule: Q01DX011 (ip), vehicle: alkali diluted with saline, higher = larger tumour) 66 % of control; (endpoint: mean tumor weight, dose: 50.0 mg/kg/injection, schedule: Q01DX011 (ip), vehicle: alkali diluted with saline, higher = larger tumour) 62 % of control. In addition, the T/C (endpoint: median survival time, dose: 0.3 mg/kg/injection, schedule: Q01DX000 (ip), vehicle: alkali diluted with saline, higher = longer survival) was 106 % of control; the T/C (endpoint: median survival time, dose: 1.0 mg/kg/injection, schedule: Q01DX009 (ip), vehicle: saline, higher = longer survival) was 106 % of control; the T/C (endpoint: median survival time, dose: 2.0 mg/kg/injection, schedule: Q01DX009 (ip), vehicle: saline, higher = longer survival) was 121 % of control; the T/C (endpoint: median survival time, dose: 3.0 mg/kg/injection, schedule: Q01DX000 (ip), vehicle: alkali diluted with saline, higher = longer survival) was 101 % of control; the T/C (endpoint: median survival time, dose: 4.0 mg/kg/injection, schedule: Q01DX009 (ip), vehicle: saline, higher = longer survival) is 117 % of control; the T/C (endpoint: median survival time, dose: 8.0 mg/kg/injection, schedule: Q01DX009 (ip), vehicle: saline, higher = longer survival) is 121 % of control. Also, the T/C is 98 % of control (endpoint: median survival time, dose: 10.0 mg/kg/injection, schedule: Q01DX011 (ip), vehicle: alkali diluted with saline, higher = longer survival); 108 % of control (endpoint: median survival time, dose: 15.0 mg/kg/injection, schedule: Q01DX009 (ip), vehicle: saline with Tween-80, higher = longer survival); 91 % of control (endpoint: median survival time, dose: 20.0 mg/kg/injection, schedule: Q01DX011 (ip), vehicle: alkali diluted with saline, higher = longer survival); 97 % of control (endpoint: median survival time, dose: 30.0 mg/kg/injection, schedule: Q01DX000 (ip), vehicle: alkali diluted with saline, higher = longer survival); 104 % of control (endpoint: median survival time, dose: 30.0 mg/kg/injection, schedule: Q01DX009 (ip), vehicle: Klucel (hydroxypropylcellulose) (HPC), higher = longer survival); 89 % of control (endpoint: median survival time, dose: 40.0 mg/kg/injection, schedule: Q01DX011 (ip), vehicle: alkali diluted with saline, higher = longer survival). The T/C (endpoint: median tumor weight (est.), dose: 15.0 mg/kg/injection, schedule: Q01DX009 (ip), vehicle: saline with Tween-80, higher = larger tumour) is 79 % of control; the T/C (endpoint: median tumor weight (est.), dose: 30.0 mg/kg/injection, schedule: Q01DX009 (ip), vehicle: saline with Tween-80, higher = larger tumour) was 72 % of control; the T/C (endpoint: median tumor weight (est.), dose: 35.0 mg/kg/injection, schedule: Q01DX011 (ip), vehicle: alkali diluted with saline, higher = larger tumour) is 44 % of control; the T/C (endpoint: median tumor weight (est.), dose: 51.0 mg/kg/injection, schedule: Q01DX011 (ip), vehicle: alkali diluted with saline, higher = larger tumour) was 38 % of control; the T/C (endpoint: median tumor weight (est.), dose: 80.0 mg/kg/injection, schedule: Q01DX011 (ip), vehicle: alkali diluted with saline, higher = larger tumour) is 70 % of control and 75 % of control and 93 % of control.

Regarding `Nc1nc(N)c(N=O)c(Nc2ccc(Br)cc2)n1`, the T/C reads like this: (endpoint: mean tumor weight, dose: 10.0 mg/kg/injection, schedule: Q01DX011 (ip), vehicle: other, higher = larger tumour) 76 % of control; (endpoint: mean tumor weight, dose: 20.0 mg/kg/injection, schedule: Q01DX011 (ip), vehicle: other, higher = larger tumour) 114 % of control; (endpoint: mean tumor weight, dose: 40.0 mg/kg/injection, schedule: Q01DX011 (ip), vehicle: other, higher = larger tumour) 70 % of control; (endpoint: mean tumor weight, dose: 80.0 mg/kg/injection, schedule: Q01DX011 (ip), vehicle: other, higher = larger tumour) 44 % of control and 45 % of control; (endpoint: mean tumor weight, dose: 160.0 mg/kg/injection, schedule: Q01DX011 (ip), vehicle: other, higher = larger tumour) 47 % of control; (endpoint: mean tumor weight, dose: 320.0 mg/kg/injection, schedule: Q01DX011 (ip), vehicle: other, higher = larger tumour) 62 % of control.

For the compound `C=C1C(C)C2C(Cc3ccccc3)NC(=O)C23C(OC(C)=O)C=CC(C)(O)C(=O)C(C)C/C=C/C3C1O` (stereo not drawn), the T/C is, setting by setting: under setting [1], 121 % of control; under setting [2], 124 % of control; under setting [3], 110 % of control; under setting [4], 118 % of control; (endpoint: median survival time, dose: 5.0 mg/kg/injection, schedule: Q01DX009 (ip), vehicle: Klucel (hydroxypropylcellulose) (HPC), higher = longer survival) 109 % of control.

In the case of `CC(C)CCCCCCCCCCCCC(=O)NCC(=O)NC1C(O)C(O)C(Nc2ncnc3nc[nH]c23)OC1C(O)CO` (stereo not drawn), the T/C reads like this: (endpoint: mean tumor weight, dose: 0.25 mg/kg/injection, schedule: Q01DX011 (ip), vehicle: saline, higher = larger tumour) 69 % of control; (endpoint: mean tumor weight, dose: 0.5 mg/kg/injection, schedule: Q01DX011 (ip), vehicle: saline, higher = larger tumour) 54 % of control; (endpoint: mean tumor weight, dose: 1.0 mg/kg/injection, schedule: Q01DX011 (ip), vehicle: saline, higher = larger tumour) 100 % of control.

On to `COc1ccc(/C=C/c2ccc3ccccc3[n+]2C)c(OC)c1OC`, for which the T/C is 117 % of control under setting [1]; 108 % of control under setting [2]; 107 % of control under setting [3]; 89 % of control and 92 % of control under setting [4].

`COCC(O)Cn1ccnc1[N+](=O)[O-]` (stereo not drawn): the T/C was 81 % of control (endpoint: median survival time, dose: 500.0 mg/kg/injection, schedule: Q01DX001 (ip), vehicle: saline, higher = longer survival); 77 % of control and 93 % of control (endpoint: median survival time, dose: 600.0 mg/kg/injection, schedule: Q01DX001 (ip), vehicle: saline, higher = longer survival); 74 % of control and 91 % of control and 94 % of control (endpoint: median survival time, dose: 1000.0 mg/kg/injection, schedule: Q01DX001 (ip), vehicle: saline, higher = longer survival).

Consider `C=CC(=O)NCNC(=O)C=C`, for which the T/C by setting is: (endpoint: mean tumor weight, dose: 44.0 mg/kg/injection, schedule: Q01DX011 (ip), vehicle: saline, higher = larger tumour) 101 % of control; (endpoint: mean tumor weight, dose: 66.0 mg/kg/injection, schedule: Q01DX011 (ip), vehicle: saline, higher = larger tumour) 48 % of control; (endpoint: mean tumor weight, dose: 100.0 mg/kg/injection, schedule: Q01DX011 (ip), vehicle: saline, higher = larger tumour) 56 % of control.

On to `O=C1C=CC2(CCC23C=CC(=O)O3)O1` (stereo not drawn), for which the T/C was 102 % of control (endpoint: mean tumor weight, dose: 13.0 mg/kg/injection, schedule: Q01DX011 (ip), vehicle: saline, higher = larger tumour); 85 % of control (endpoint: mean tumor weight, dose: 30.0 mg/kg/injection, schedule: Q01DX011 (ip), vehicle: saline, higher = larger tumour); 80 % of control and 83 % of control (endpoint: mean tumor weight, dose: 45.0 mg/kg/injection, schedule: Q01DX011 (ip), vehicle: saline, higher = larger tumour); 66 % of control (endpoint: mean tumor weight, dose: 65.0 mg/kg/injection, schedule: Q01DX011 (ip), vehicle: saline, higher = larger tumour).

With `S=c1nc[nH]c2c1ncn2C1CCCO1` (stereo not drawn), the T/C is 36 % of control (endpoint: mean tumor weight, dose: 12.5 mg/kg/injection, schedule: Q01DX011 (ip), vehicle: other, higher = larger tumour); 86 % of control (endpoint: mean tumor weight, dose: 25.0 mg/kg/injection, schedule: Q01DX011 (ip), vehicle: other, higher = larger tumour); 91 % of control (endpoint: mean tumor weight, dose: 50.0 mg/kg/injection, schedule: Q01DX011 (ip), vehicle: other, higher = larger tumour); 67 % of control under setting [5].

Consider `NC(=O)c1[nH]nc(C2OC(CO)C(O)C2O)c1O` (stereo not drawn), for which the T/C is, setting by setting: (endpoint: median survival time, dose: 1.73 mg/kg/injection, schedule: Q04DX003 (iv), vehicle: saline, higher = longer survival) 191 % of control; (endpoint: median survival time, dose: 5.2 mg/kg/injection, schedule: Q04DX003 (iv), vehicle: saline, higher = longer survival) 117 % of control; (endpoint: median survival time, dose: 15.6 mg/kg/injection, schedule: Q04DX003 (iv), vehicle: saline, higher = longer survival) 69 % of control.

For `CN(N=O)C(N)=O`, the T/C reads like this: (endpoint: mean tumor weight, dose: 2.5 mg/kg/injection, schedule: Q01DX011 (ip), vehicle: saline, higher = larger tumour) 78 % of control; (endpoint: mean tumor weight, dose: 5.0 mg/kg/injection, schedule: Q01DX011 (ip), vehicle: saline, higher = larger tumour) 77 % of control; (endpoint: mean tumor weight, dose: 10.0 mg/kg/injection, schedule: Q01DX011 (ip), vehicle: saline, higher = larger tumour) 57 % of control; (endpoint: mean tumor weight, dose: 20.0 mg/kg/injection, schedule: Q01DX011 (ip), vehicle: saline, higher = larger tumour) 20 % of control.

For the compound `C=COCC(C)C` (tested in a mixture with another compound), the T/C is, setting by setting: (endpoint: median survival time, dose: 1.25 mg/kg/injection, schedule: Q01DX009 (ip), vehicle: other, higher = longer survival) 101 % of control; (endpoint: median survival time, dose: 2.5 mg/kg/injection, schedule: Q01DX009 (ip), vehicle: other, higher = longer survival) 110 % of control; (endpoint: median survival time, dose: 5.0 mg/kg/injection, schedule: Q01DX009 (ip), vehicle: other, higher = longer survival) 107 % of control.

Regarding `NC(=O)c1ccc(NC(=O)CCC(=O)Nc2ccc(C(N)=O)cn2)nc1`, the T/C was 54 % of control (endpoint: mean tumor weight, dose: 1.25 mg/kg/injection, schedule: Q01DX011 (ip), vehicle: carboxymethylcellulose (CMC), higher = larger tumour) and 24 % of control (endpoint: mean tumor weight, dose: 2.5 mg/kg/injection, schedule: Q01DX011 (ip), vehicle: carboxymethylcellulose (CMC), higher = larger tumour).

On to `O=P(c1ccccc1)(c1ccccc1)P(=O)(c1ccccc1)c1ccccc1`, for which the T/C (endpoint: mean tumor weight, dose: 33.0 mg/kg/injection, schedule: Q01DX011 (ip), vehicle: other, higher = larger tumour) was 117 % of control; the T/C (endpoint: mean tumor weight, dose: 66.0 mg/kg/injection, schedule: Q01DX011 (ip), vehicle: other, higher = larger tumour) was 79 % of control; the T/C under setting [5] is 61 % of control; the T/C (endpoint: mean tumor weight, dose: 150.0 mg/kg/injection, schedule: Q01DX011 (ip), vehicle: other, higher = larger tumour) was 94 % of control; the T/C (endpoint: mean tumor weight, dose: 200.0 mg/kg/injection, schedule: Q01DX011 (ip), vehicle: methylcellulose (MC), higher = larger tumour) was 87 % of control; the T/C (endpoint: mean tumor weight, dose: 300.0 mg/kg/injection, schedule: Q01DX011 (ip), vehicle: methylcellulose (MC), higher = larger tumour) was 38 % of control.
